Experimental data published in ChEMBL document CHEMBL1287729, “Novel and efficient synthesis and antifungal evaluation of 2,3-functionalized cholestane and androstane derivatives” (2010).
≈ marks a conversion by molar mass, not a printed value. Calls of active or inactive are those of the source. The calls are words filed in the database; no cut-off is given here.

What was measured:
Candida albicans [1] = experiment: Antifungal activity against Candida albicans ATCC 10231 at 128-0.01 ug/ml spectroscopy analysis; type: functional, organism-based
Nakaseomyces glabratus [2] = experiment: Antifungal activity against Candida glabrata ATCC 48435 at 128-0.01ug/ml spectroscopy analysis; type: functional, organism-based
Cryptococcus neoformans [3] = experiment: Antifungal activity against Cryptococcus neoformans ATCC 36556 at128-0.01 ug/ml spectroscopy analysis; type: functional, organism-based
Aspergillus fumigatus [4] = experiment: Antifungal activity against Aspergillus fumigatus ATCC 16424 at 128-0.01 ug/ml by spectroscopy analysis; type: functional, organism-based
Aspergillus fumigatus [5] = experiment: Antifungal activity against Aspergillus fumigatus ATCC 16424 after 48 hrs by broth dilution method; type: functional; details: ATCC 16424, 48 h
Cryptococcus neoformans [6] = experiment: Antifungal activity against Cryptococcus neoformans ATCC 36556 after 48 hrs by broth dilution method; type: functional; details: ATCC 36556, 48 h
Candida albicans [7] = experiment: Antifungal activity against Candida albicans ATCC 10231 after 48 hrs by broth dilution method; type: functional; details: ATCC 10231, 48 h
Nakaseomyces glabratus [8] = experiment: Antifungal activity against Candida glabrata ATCC 48435 after 48 hrs by broth dilution method; type: functional; details: ATCC 48435, 48 h

| SMILES | growth inhibition (GI) (Candida albicans [1]) | growth inhibition (GI) (Aspergillus fumigatus [4]) | MIC (Cryptococcus neoformans [6]) | MIC (Aspergillus fumigatus [5]; read-out: MIC) | further results |
| --- | --- | --- | --- | --- | --- |
| C[C@@]12CCC[C@H]1[C@@H]1CC[C@H]3C[C@@H](O)CC[C@]3(C)[C@H]1CC2 | Active | Active | – | – | growth inhibition (GI) (Nakaseomyces glabratus [2]): Active; growth inhibition (GI) (Cryptococcus neoformans [3]): Active |
| CC(=O)O[C@@H]1C[C@@]2(C)[C@@H](CC[C@@H]3[C@@H]2CC[C@]2(C)[C@@H]([C@H](C)CCCC(C)C)CC[C@@H]32)CC1=O | Active | – | – | – | MIC (Aspergillus fumigatus [5]): 128 µg/mL (≈ 288 µM) |
| CC(C)CCC[C@@H](C)[C@H]1CC[C@H]2[C@@H]3CC[C@H]4C[C@@H](O)[C@H](O)C[C@]4(C)[C@H]3CC[C@]12C | – | – | 32 µg/mL (≈ 79.1 µM) | – | – |
| CC(=O)O[C@@H]1C[C@@]2(C)[C@@H](CC[C@@H]3[C@@H]2CC[C@]2(C)[C@@H]([C@H](C)CCCC(C)C)CC[C@@H]32)C[C@H]1O | – | – | 4 µg/mL (≈ 8.95 µM) | – | – |
| CC(=O)O[C@]12C[C@@H]3CC[C@@H]4[C@H](CC[C@]5(C)[C@@H]([C@H](C)CCCC(C)C)CC[C@@H]45)[C@@]3(C)C[C@H]1O2 | – | – | – | – | MIC (Aspergillus fumigatus [5]): 8 µg/mL (≈ 18 µM) |
| CC(=O)O[C@]12C[C@@H]3CC[C@H]4[C@@H]5CCC[C@@]5(C)CC[C@@H]4[C@@]3(C)C[C@H]1O2 | – | – | – | – | MIC (Candida albicans [7]): 4 µg/mL (≈ 12 µM) |
| CC(C)CCC[C@@H](C)[C@H]1CC[C@H]2[C@@H]3CC[C@H]4C[C@@H](O)CC[C@]4(C)[C@H]3CC[C@]12C | Active | Active | – | – | growth inhibition (GI) (Nakaseomyces glabratus [2]): Active; growth inhibition (GI) (Cryptococcus neoformans [3]): Active |
| CC(=O)O[C@@H]1C[C@@]2(C)[C@@H](CC[C@H]3[C@@H]4CCC[C@@]4(C)CC[C@@H]32)CC1=O | – | – | – | 1 µg/mL (≈ 3.01 µM) | MIC (Candida albicans [7]): 0.125 µg/mL (≈ 0.376 µM) |
| CC(C)CCC[C@@H](C)[C@H]1CC[C@H]2[C@@H]3CC[C@H]4C[C@@H](OC(=O)CCC(=O)O)[C@H](OC(=O)CCC(=O)O)C[C@]4(C)[C@H]3CC[C@]12C | – | Active | – | 8 µg/mL (≈ 13.2 µM) | MIC (Nakaseomyces glabratus [8]): 32 µg/mL (≈ 52.9 µM) |
| CC(=O)O[C@@H]1C[C@@]2(C)[C@@H](CC[C@@H]3[C@@H]2CC[C@]2(C)[C@@H]([C@H](C)CCCC(C)C)CC[C@@H]32)C[C@H]1OC(=O)CCC(=O)O | – | – | 8 µg/mL (≈ 14.6 µM) | 2 µg/mL (≈ 3.66 µM) | – |
